The nature of data set [1]: reversed-phase LC retention time (C18, 15 min MeOH gradient); higher = more hydrophobic / later elution.
Data set [2] can be described thus: collision cross section (TIMS, N2 drift gas) of the primary ion; higher = larger gas-phase ion size.
Setting [3] is: ionization mode: ESI-, ion species: [M-H]-.
The mark [4] stands for this setting: ionization mode: ESI+, ion species: [M+H]+.

As to `N#Cc1nn(-c2c(Cl)cc(C(F)(F)F)cc2Cl)c(N)c1S(=O)C(F)(F)F` (configuration not stated) [Fipronil], the “reversed-phase LC retention time” value in data set [1] (setting [3]) was 15.6 min. Besides, the collision cross section in data set [2] (setting [3]) is listed as 177.2 Å².
Regarding `N#CCNC(=O)c1cnccc1C(F)(F)F` [Flonicamid], the “reversed-phase LC retention time” value in data set [1] (setting [4]) amounted to 7.31 min. The same compound showed a collision cross section in data set [2] (setting [4]) of 149.83 Å².
On to `Cc1cc(C(F)(C(F)(F)F)C(F)(F)F)ccc1NC(=O)c1cccc(I)c1C(=O)NC(C)(C)CS(C)(=O)=O` [Flubendiamide], for which, in data set [1] (setting [3]), the “reversed-phase LC retention time” value was 15.8 min. In addition, in data set [2] (setting [3]), the collision cross section is on record as 222.96 Å².
As to `OC(Cn1cncn1)(Cn1cncn1)c1ccc(F)cc1F` [Fluconazole], the figures for the “reversed-phase LC retention time” value in data set [1] (setting [4]) and in data set [1] (setting [3]) were 9.38 min and 9.54 min, respectively. For the same compound, the collision cross section was found to be 166.92 Å² in data set [2] (setting [4]) and 158.78 Å² in data set [2] (setting [3]).
For the compound `N#Cc1c[nH]cc1-c1cccc2c1OC(F)(F)O2` [Fludioxonil], in data set [1] (setting [3]), the “reversed-phase LC retention time” value came to 14.4 min. Moreover, the collision cross section in data set [2] (setting [3]) worked out at 145.03 Å².
As to `CC(=O)OCC(=O)[C@@]1(O)CC[C@H]2[C@@H]3CCC4=CC(=O)CC[C@]4(C)[C@@]3(F)[C@@H](O)C[C@@]21C` [Fludrocortisone-21-acetate], the “reversed-phase LC retention time” value in data set [1] (setting [3]) is 13.6 min. The collision cross section in data set [2] (setting [3]) is on record as 197.85 Å².
On to `CC(C)N(C(=O)COc1nnc(C(F)(F)F)s1)c1ccc(F)cc1` [Flufenacet], for which the “reversed-phase LC retention time” value in data set [1] (setting [4]) worked out at 14.9 min. Moreover, in data set [2] (setting [4]), the collision cross section turned out to be 178.11 Å².
Take `O=C(O)c1ccccc1Nc1cccc(C(F)(F)F)c1` [Flufenamic acid]: the “reversed-phase LC retention time” value in data set [1] (setting [3]) is 14 min. In data set [2] (setting [3]), the collision cross section was determined as 159.1 Å².
On to `O=C(NC(=O)c1c(F)cccc1F)Nc1ccc(Oc2ccc(C(F)(F)F)cc2Cl)cc1F` [Flufenoxuron], for which the “reversed-phase LC retention time” value in data set [1] (setting [4]) turned out to be 17.4 min; in data set [1] (setting [3]) it was 17.8 min. Also, the collision cross section in data set [2] (setting [4]) worked out at 204.54 Å²; in data set [2] (setting [3]) it was 215.68 Å².
For `CC1CCc2cc(F)cc3c(=O)c(C(=O)O)cn1c23` (configuration not stated) [Flumequine] the same measures were 11.7 min, 9.17 min, 152.91 Å² and 166.14 Å².
Take `C#CCN1C(=O)COc2cc(F)c(N3C(=O)C4=C(CCCC4)C3=O)cc21` [Flumioxazin]: the “reversed-phase LC retention time” value in data set [1] (setting [4]) amounted to 13.5 min. The compound further yielded a collision cross section in data set [2] (setting [4]) of 188.98 Å².
For the compound `CC1(C)O[C@@H]2C[C@H]3[C@@H]4C[C@H](F)C5=CC(=O)C=C[C@]5(C)[C@@]4(F)[C@@H](O)C[C@]3(C)[C@]2(C(=O)CO)O1` [Fluocinolone acetonide], the “reversed-phase LC retention time” value in data set [1] (setting [3]) was determined as 13.7 min. In addition, the collision cross section in data set [2] (setting [3]) came out at 198.83 Å².
With `O=C(NCc1ncc(C(F)(F)F)cc1Cl)c1c(Cl)cccc1Cl` [Fluopicolide], in data set [1] (setting [4]), the “reversed-phase LC retention time” value was 14.4 min. Further, the collision cross section in data set [2] (setting [4]) is 176.08 Å².
For `O=C(NCCc1ncc(C(F)(F)F)cc1Cl)c1ccccc1C(F)(F)F` [Fluopyram], the entries for the “reversed-phase LC retention time” value in data set [1] (setting [4]) and in data set [1] (setting [3]) were 14.7 min and 15.2 min, respectively. Also, the values for the collision cross section in data set [2] (setting [4]) and in data set [2] (setting [3]) were 177.5 Å² and 179.2 Å², respectively.
As for `Oc1ccc(C2(c3ccc(O)cc3)c3ccccc3-c3ccccc32)cc1` [Fluorene-9-bisphenol], the “reversed-phase LC retention time” value in data set [1] (setting [3]) is 15.3 min. In data set [2] (setting [3]), this compound came in with a collision cross section of 194.22 Å².
Consider `CO/N=C(/C1=NOCCO1)c1ccccc1Oc1ncnc(Oc2ccccc2Cl)c1F` [Fluoxastrobin], for which, in data set [1] (setting [4]), the “reversed-phase LC retention time” value came out at 14.8 min. The collision cross section in data set [2] (setting [4]) came out at 205.37 Å².
As to `CNCCC(Oc1ccc(C(F)(F)F)cc1)c1ccccc1` (configuration not stated) [Fluoxetine], the “reversed-phase LC retention time” value in data set [1] (setting [4]) was found to be 13.4 min. In data set [2] (setting [4]), this compound gave a collision cross section of 177.66 Å².
Taken in the same sequence, the figures for `OCCN1CCN(CC/C=C2/c3ccccc3Sc3ccc(C(F)(F)F)cc32)CC1` [Flupentixol_1] were 14.9 min and 200.91 Å².
With `O=C1C=C(N(Cc2ccc(Cl)nc2)CC(F)F)CO1` [Flupyradifurone], the “reversed-phase LC retention time” value in data set [1] (setting [4]) was 9.35 min; in data set [1] (setting [3]), 9.46 min. In addition, the collision cross section is 164.36 Å² in data set [2] (setting [4]) and 163.3 Å² in data set [2] (setting [3]).
Turning to `Nc1c(Cl)c(F)nc(OCC(=O)O)c1Cl` [Fluroxypyr], in data set [1] (setting [3]), the “reversed-phase LC retention time” value worked out at 7.61 min. In data set [2] (setting [3]), this compound yielded a collision cross section of 139.78 Å².
As for `CNC1=C(c2cccc(C(F)(F)F)c2)C(=O)C(c2ccccc2)O1` (configuration not stated) [Flurtamone], the “reversed-phase LC retention time” value worked out at 13.9 min in data set [1] (setting [4]) and 14.2 min in data set [1] (setting [3]). Besides, the collision cross section in data set [2] (setting [4]) came to 179.28 Å²; in data set [2] (setting [3]), 175.08 Å².
In the case of `C[Si](Cn1cncn1)(c1ccc(F)cc1)c1ccc(F)cc1` [Flusilazole], in data set [1] (setting [4]), the “reversed-phase LC retention time” value stood at 15.2 min. In data set [2] (setting [4]), this compound registered a collision cross section of 176.25 Å².
In the case of `CCC(=O)O[C@]1(C(=O)SCF)[C@H](C)C[C@H]2[C@@H]3C[C@H](F)C4=CC(=O)C=C[C@]4(C)[C@@]3(F)[C@@H](O)C[C@@]21C` [Fluticasone propionate], the “reversed-phase LC retention time” value in data set [1] (setting [4]) was found to be 15.2 min; in data set [1] (setting [3]), 15.7 min. Further, the collision cross section in data set [2] (setting [4]) is 212.76 Å²; in data set [2] (setting [3]), 209.59 Å².
For the compound `CC(C)Oc1cccc(NC(=O)c2ccccc2C(F)(F)F)c1` [Flutolanil], the “reversed-phase LC retention time” value in data set [1] (setting [4]) is 14.3 min; in data set [1] (setting [3]) it was 14.7 min. Besides, the collision cross section stood at 173.43 Å² in data set [2] (setting [4]) and 176.16 Å² in data set [2] (setting [3]).
Consider `OC(Cn1cncn1)(c1ccc(F)cc1)c1ccccc1F` (configuration not stated) [Flutriafol], for which the “reversed-phase LC retention time” value in data set [1] (setting [4]) is 12.9 min. The collision cross section in data set [2] (setting [4]) was 167.74 Å².
On to `COCCCCC(=NOCCN)c1ccc(C(F)(F)F)cc1` [Fluvoxamine], for which the “reversed-phase LC retention time” value in data set [1] (setting [4]) worked out at 13.3 min. Moreover, the collision cross section in data set [2] (setting [4]) was 178.07 Å².
With `Cn1cc(C(=O)Nc2ccccc2-c2cc(F)c(F)c(F)c2)c(C(F)F)n1` [Fluxapyroxad], the “reversed-phase LC retention time” value in data set [1] (setting [4]) came out at 14.4 min; in data set [1] (setting [3]), 14.7 min. The collision cross section is listed as 178.14 Å² in data set [2] (setting [4]) and 180.37 Å² in data set [2] (setting [3]).

The values above are taken from the supplement of paper PMC12613149.
